Assay results taken from patent publication US20180245049A1, “METHOD FOR INDUCING DIFFERENTIATION OF STEM CELLS” (STICHTING KATHOLIEKE UNIVERSITEIT, priority 2015, published 2018).

What was measured:
[1] = system: hMSCs; test: Live/dead assay (calcein-AM and MTT) of gel-encapsulated cells; assay type: cell-based, human; conditions: live/dead assay after 48 h and 96 h of culture, 50 nM
Procedure: Cell Culture. Human Mesenchymal Stem Cells (hMSCs) were obtained from Lonza, Inc. (Switzerland). Cells were then cultured in α-MEM medium (lnvitrogen) supplemented with 10% fetal bovine serum (FBS), 1% penicillin/streptomycin and incubated in a humidified atmosphere containing 5% (v/v) CO2 at 37° C. For the encapsulation of cells in the gels, first, the cell pellets were obtained by centrifugation. Then 500 μL of the cold polymer solution (˜10° C.) was added directly to the pellet, followed by a gentle pipetting up and down 3-4 times to ensure a homogeneous mixture that was directly put onto a cover slip in a 6-well plate (also kept cold). Thereafter, the solution was sandwiched between two cover slips and the well plate was transferred to a 37° C. incubator. The volume of the suspension was chosen (500 μL) in order to obtain hydrogel thickness in the range of 3 mm. […] To evaluate proliferation, total double-stranded DNA content was determined by using the PicoGreen assay as previously reported.
MTT Assay. As described in literature, briefly, cell viability was determined by the 3-(4,5-dimethylthiazol-2-yl)-2,5-diphenyltetrazolium bromide (MTT) assay and the data are presented as a percentage of control viability.
Live/Dead Staining. Cell viability was determined with the live/dead viability/cytotoxicity kit (Molecular Probes), according to the manufacturer's protocol.

[2] = system: hMSCs; test: Lineage commitment and differentiation of gel-encapsulated hMSCs in bipotential differentiation medium (STRO-1, Osterix, Oil-red O staining); assay type: cell-based, human
Procedure: Cell Culture. Human Mesenchymal Stem Cells (hMSCs) were obtained from Lonza, Inc. (Switzerland). Cells were then cultured in α-MEM medium (lnvitrogen) supplemented with 10% fetal bovine serum (FBS), 1% penicillin/streptomycin and incubated in a humidified atmosphere containing 5% (v/v) CO2 at 37° C. For the encapsulation of cells in the gels, first, the cell pellets were obtained by centrifugation. Then 500 μL of the cold polymer solution (˜10° C.) was added directly to the pellet, followed by a gentle pipetting up and down 3-4 times to ensure a homogeneous mixture that was directly put onto a cover slip in a 6-well plate (also kept cold). Thereafter, the solution was sandwiched between two cover slips and the well plate was transferred to a 37° C. incubator. The volume of the suspension was chosen (500 μL) in order to obtain hydrogel thickness in the range of 3 mm. […] Afterwards, the gel becomes stiffer with time and attains the final stiffness in 2-3 minutes. This favors the supporting of cells in 3D rather than the cells settling at the bottom. After gel formation, the two cover slips were removed and α-MEM medium (without serum) was added. All cell culture experiments were carried out without any serum in the medium for the first 6 h of culture. Then, α-MEM medium with 10% serum was added. All cells were used at low passage numbers (≤passage 4), were subconfluently cultured and were seeded at 10^6 cells/mL for the purpose of the experiments and in order to avoid cell-cell contacts. The lineage commitment and differentiation of the gel encapsulated hMSCs after 96 h and 3 weeks of culture, respectively, were investigated with bipotential differentiation medium (1:1 v/v osteogenic and adipogenic media, Lonza). For all the experiments, a non-functionalized soft polymer gel (cell culture in growth medium) served as control. […] The pharmacological agents used were 50 μM Blebbistatin (EMD Biosciences-Calbiochem), 1 μM cytochalasin D (Sigma) and 50 nM Taxol (Abcam). The hMSCs were exposed to each pharmacological agent for 1 h, 24 h and 72 h, respectively, after seeding on a modified polymer. For antibody inhibition studies, cells were preincubated with 5 ng/mL anti-α1, 2, 3 and 5-β1, 2 (all from Santa Cruz Biotechnology). For competition experiments with soluble RGD peptides, the cells were incubated in 1 mL of cell culture media containing 200 μg of RGDS peptides during 20 min on plastic and then transferred to the polymer gels. To evaluate proliferation, total double-stranded DNA content was determined by using the PicoGreen assay as previously reported.
Immunostaining. […]

CC(=O)O[C@H]1C(=O)[C@@]2(C)[C@H]([C@H](OC(=O)c3ccccc3)[C@]3(O)C[C@H](OC(=O)[C@H](O)[C@@H](NC(=O)c4ccccc4)c4ccccc4)C(C)=C1C3(C)C)[C@]1(OC(C)=O)CO[C@@H]1C[C@@H]2O [Taxol]
cell viability after Taxol treatment [1]: did not affect cell viability
hMSCs commitment after Taxol treatment ([2]; 50 nM): decrease in hMSCs commitment

Cc1ccc2c(c1)C(=O)C1(O)CCN(c3ccccc3)C1=N2 (centres unmarked) [blebbistatin]
STRO-1 in encapsulated cells in presence of blebbistatin ([2]; 50 μM, all the polymer gels): high levels of STRO-1
hMSCs commitment in presence of blebbistatin ([2]; 50 μM, all the polymer gels): inhibited the hMSCs commitment

C=C1[C@@H](C)[C@H]2[C@H](Cc3ccccc3)NC(=O)[C@]23[C@H](OC(C)=O)/C=C/[C@@](C)(O)C(=O)[C@@H](C)C/C=C/[C@H]3[C@@H]1O [cytochalasin-D]
hMSCs commitment after cytochalasin-D treatment ([2]; 1 μM, towards both osteogenesis and adipogenesis): overall decreased commitment
